# Laboratory results as given in EP0249561B1, “Compositions using liposome-encapsulated non-steroidal anti-inflammatory drugs” (THE LIPOSOME COMPANY, INC., priority 1986, dated 1987).
# How the values were obtained:
# male Wistar rats = experiment: Acute ulceration after one oral dose of indomethacin, ulcer lengths counted in excised stomachs (Control 1 / Example 2); assay type: in vivo; settings: indomethacin 10 mg/kg, starved rats, 4 hours after dosing
# Method: Twenty 225-250 g male Wistar rats were starved for 18-24 hours prior to dosing. Rats were allowed access to water throughout the study. Ten rats in the free drug control group were then administered one oral dose of indomethacin, dissolved in polyethylene glycol 400 at 7 mg/ml and administered at 10 mg/kg body weight of indomethacin.
# Four hours following dosing, rats were sacrificed by carbon dioxide anoxia and their stomachs surgically removed by severing at the cardiac and pyloric sphinctors. The stomachs were opened along the lesser curve, flattened, and washed with saline. Ulcer lengths were counted under a dissecting microscope (American Optical, Buffalo, NY) equipped with an eyepiece micrometer, and lengths were summed and averaged for all animals in a single treatment group.
# Ulcer protection was assessed by summing and averaging ulcer lengths (in mm) of the treated group and comparing the value to that of the group administered free drug […]. Percent ulcer inhibition was calculated by dividing the average length of ulceration of the liposome-treated group by the of the corresponding free drug group, and multiplying by 100.
# The procedures and materials of Example 1 were employed using 10 mg/kg body weight of indomethacin entrapped in stable plurilamellar vesicles (SPLVs) composed of digalactosyl diglyceride; ulcer protection was assessed as in Example 1.
# female Wistar rats = experiment: Acute carageenan paw edema model, paw volume by plethysmometer (Control 2 / Example 3); assay type: in vivo; settings: indomethacin 2 mg/kg oral, 30 minutes before carageenan, paw volume 2.5 hours after carageenan
# Method: Eight female Wistar rats weighing approximately 100 grams were allowed free access to food and water. A tatoo line was inscribed onto the right rear paw just below the hair line. Initial paw volume was measured by a transducer-linked plethysmometer (Stoelting Co., Chicago, Illinois) which contained a saline solution. The instrument measures paw volumes by an electrical charge difference across two electrodes resulting from the volume displacement by the paw. A transducer corrects this charge difference into cubic centimeters of volume displaced. Following immersion of the paw in the perspex cell to the inscribed line, a direct measurement of the displacement volume was recorded. Rats were orally dosed with 2 mg/kg body weight of indomethacin in polyethylene glycol 400. At 30 minutes post treatment, rats received an injection of 0.1 ml of 1.5% carageenan in saline […] directly into the rear paw pad. The paw volume was again determined 2.5 hours after the carageenan administration. The edema intensity (EI) was calculated: [formula] and averaged for the eight rats. The paw volumes for the eight rats were averaged and the percent swelling inhibition was calculated: % swelling Reduction: [formula] […] Rats were orally dosed with the liposomes, and percent swelling reduction was calculated as in Example 2.
# rats (Wistar) [1] = experiment: Inducing gastric ulcers (acute), oral administration (Control 3); assay type: in vivo; settings: for mm Ulceration + SEM: acute oral, 4 hours
# Text: For oral studies, it is convenient to use indomethacin but other nonsteroidal anti-inflammatory therapeutic agent can be similarly employed. This model is also useful in examining other nonsteroidal anti-inflammatory therapeutic agents and other mammals. Simply varying doses will induct gastric ulcers for other agents and mammals in this model. Unlike gastric ulcer protocols, it has been shown that for nonsteroidal anti-inflammatory effects such as indomethacin-induced intestinal lesions to occur, animals must be allowed free acces to food and water during the study.
# Indomethacin at dosages between about 2 mg/kg and 10 mg/kg were given in 0.5 ml of neat PEG-400, vehicle or as incorporated into the liposomes at a 200 mg/kg dosage of phospholipid. Four hours following oral administration of test formulations, animals were sacrificed by CO₂ anoxia and the stomachs were excised. For systemically-induced gastric ulceration, dosages of PEG-400 solubilized indomethacin between 4 mg/kg and 50 mg/kg in 0.5 ml were administered subcutaneously. […] Tissue was thoroughly rinsed in saline and the inner mucosal surface was laid flat for microscopic evaluation. Visible ulcers were quantitated using a dissecting microscope (AO Optical, Buffalo, NY) equipped with an eyepiece micrometer. Results using this test were expressed in millimeters of ulceration and in percent inhibition of ulcers where treatment was effected. For all studies, a minimum of 10 animals per experimental group were employed. Experiments were conducted in triplicate, thereby representing a minimum of 30 rats per group.
# rats (Wistar) [2] = experiment: Inducing intestinal ulceration (chronic), 4-day oral dosing (Control 4); assay type: in vivo; settings: about 4 mg/kg daily oral over 4 days
# Method: Single daily oral dosages of indomethacin at about 4 mg/kg in vehicle or in monophasic vesicles were administered over 4 days. Test animals in this example were rats (Wistar). On the fifth day the full length of the intestines were excised and slit open opposite to the attached mesenteric issue. The mucosal surface was rinsed with saline, the ulcers (including perforations) were quantitated in millimeters as described about or by determination of total surface area of lesions. This was accomplished by means of a planimeter (Zidas, Carl Zeiss, West Germany) optically linked to an SR stereo dissecting microscope (Zeiss) with a draw tube attachment. In this example results were expressed as total mm² of ulcerated surface and as percent inhibition of ulceration when treatment was provided. Average values were calculated based upon a minimum of 5 animals per group from at least duplicate experiments. […] Sham vehicle, however, were nontoxic to the animals. Clearly this method is easily adaptable by those skilled in the art to other nonsteroidal anti-inflammatory therapeutic agents and other animals.
# [3] = generally shown by others, cited from earlier work; for half-lives: range for the group
# rat stomach mucosa = settings: rats dosed with the prostaglandin; cited from earlier work
Molecule,blood level half-lives [3],half-lives [3],other results
"COc1ccc2c(c1)c(CC(=O)O)c(C)n2C(=O)c1ccc(Cl)cc1 [Indomethacin in PEG-400, indomethacin]",under four,,"mm ULCERATION (male Wistar rats): 43.9 mm; % SWELLING REDUCTION (female Wistar rats): 37.2%; total ulcer length, high reached in individual experiments (rats (Wistar) [1]; 10 mg indomethacin/kg body weight, P.O.): 45 mm; mm Ulceration + SEM (rats (Wistar) [1]; indomethacin 2 mg/kg): 1.1 ± 0.3 mm; mm Ulceration + SEM (rats (Wistar) [1]; indomethacin 4 mg/kg): 3.4 ± 0.8 mm; mm Ulceration + SEM (rats (Wistar) [1]; indomethacin 6 mg/kg): 9.7 ± 1.2 mm; mm Ulceration + SEM (rats (Wistar) [1]; indomethacin 8 mg/kg): 22.3 ± 3.4 mm; mm Ulceration + SEM (rats (Wistar) [1]; indomethacin 10 mg/kg): 23.3 ± 2.6 mm; mm Ulceration + SEM (rats (Wistar) [1]; indomethacin 10 mg/kg, listed as indomethacin in PEG-400): 25 mm; mortality rate (rats (Wistar) [2]): 20-30%"
Cc1cccc(Nc2ccccc2C(=O)O)c1C [Mefenamic acid],about four,,
"CC(=O)Oc1ccccc1C(=O)O [acetylsalicylic, Acetylsalicylic Acid (ASA)]",under four,,
O=C(O)Cc1ccccc1Nc1c(Cl)cccc1Cl [diclofenac],under four,,
O=C(O)c1cc(-c2ccc(F)cc2F)ccc1O [diflunisal],,over ten hours to three days,
CC(C(=O)O)c1cccc(Oc2ccccc2)c1 (stereo not shown) [fenoprofen],under four,,
Cc1ccc(Cl)c(Nc2ccccc2C(=O)O)c1Cl [meclofenamate],under four,,
CCCCC1C(=O)N(c2ccccc2)N(c2ccccc2)C1=O [phenylbutazone],,over ten hours to three days,
CN1C(C(=O)Nc2ccccn2)=C(O)c2ccccc2S1(=O)=O [piroxicam],,over ten hours to three days,
CC1=C(CC(=O)O)c2cc(F)ccc2/C1=C\c1ccc([S+](C)[O-])cc1 (stereo not shown) [sulindac],,over ten hours to three days,
Cc1ccc(C(=O)c2ccc(CC(=O)O)n2C)cc1 [tolmetin],under four,,
Prostaglandin E₂,,,increase in the major gastric surface protective surfactant (rat stomach mucosa): 2-6 fold
